Seven molecules from patent publication US11419866B2, “Pharmaceutical composition for sustained release delivery of buprenorphine” (Foresee Pharmaceuticals Co., Ltd., priority 2018, dated 2022) can be followed below.

A short description of series [1]: Color stabilization by antioxidant in buprenorphine formulation, visual inspection (Example 3). The format is physicochemical. The note with it: overtime under stress condition.
Series [2] can be described thus: Solubility of buprenorphine in BA/OA combination vehicles at room temperature.

Marks after values point to notes of the source that are not given here.

Regarding `O=C(O)CS` [TGA, thioglycolic acid], the “capacity of color mitigation in buprenorphine formulation” value (shortened to “capacity of color mitigation”) in series [1] is “stronger capacity of color mitigation”.

With `O=C([O-])CS.[Na+]` [STG, sodium thioglycolate], in series [1], the “capacity of color mitigation” value was “stronger capacity of color mitigation”.

In the case of `N[C@@H](CCC(=O)N[C@@H](CS)C(=O)NCC(=O)O)C(=O)O` [Glu, glutathione], the “capacity of color mitigation” value in series [1] is recorded as “milder color stabilizing effect”.

For `N[C@@H](CS)C(=O)O` [Cys, cysteine], the “capacity of color mitigation” value in series [1] was “milder color stabilizing effect”.

Take `OCC(O)CS` (stereo not shown) [MTG, monothioglycerol]: in series [1], the “capacity of color mitigation” value is recorded as “stronger capacity of color mitigation”. The “benzyl aldehyde formation promoted by thiolated antioxidant” value (BA/OA solution) is given as “positive benzyl aldehyde formation”. In addition, the “benzyl aldehyde formation with addition of VC” value (thiolated antioxidant containing BA/OA solution) is “inhibition effect of benzyl aldehyde”.

As to `O=C(O)CCCCC1CCSS1` (stereo not shown) [LipA, lipoic acid], the “capacity of color mitigation” value in series [1] is given as “milder color stabilizing effect”.

For the molecule `CO[C@]12CC[C@@]3(C[C@@H]1[C@](C)(O)C(C)(C)C)[C@H]1Cc4ccc(O)c5c4[C@@]3(CCN1CC1CC1)[C@H]2O5` [buprenorphine, (25)-2-[(−)-(5R,6R,7R,14S)-9a-cyclo-propyl-methyl-4,5-epoxy-6,14-ethano-3-hydroxy-6-methoxymorphinan-7-yl]-3,3-di-methylbutan-2-ol], the Solubility of buprenorphine worked out at 21.2% in series [2] (BA/OA vehicle, OA wt % 0, room temperature); 22.5% in series [2] (BA/OA vehicle, OA wt % 5, room temperature); 25.4% in series [2] (BA/OA vehicle, OA wt % 10, room temperature); 30.7%* in series [2] (BA/OA vehicle, OA wt % 15, room temperature); 30.8%* in series [2] (BA/OA vehicle, OA wt % 18, room temperature); 33.1%* in series [2] (BA/OA vehicle, OA wt % 30, room temperature). Further, the Solubility of buprenorphine is on record as 36.2%* in series [2] (BA/OA vehicle, OA wt % 40, room temperature) and 27.7% in series [2] (OA wt % 100, room temperature).
